According to paper PMC6152673, “Discovery of Indeno[1,2-c]quinoline Derivatives as Potent Dual Antituberculosis and Anti-Inflammatory Agents” (Molecules : A Journal of Synthetic Chemistry and Natural …, 2017):
In brackets after ≈: the same amount, converted by molar mass.

Experiments:
[1] = test system: M. tuberculosis H37Rv (ATCC 27294); assay: Anti-Mycobacterium activity, broth microdilution Microplate Alamar Blue Assay (MABA); type: cell-based; settings: MIC = lowest concentration effecting 90% reduction in fluorescence
[2] = test system: fMLF-activated human neutrophils (superoxide anion generation); assay: Superoxide anion generation in fMLF-activated human neutrophils; type: cell-based; settings: for IC50: Neutrophil, fMLF/cytochalasin B-activated human neutrophils, mean ± SEM (n = 3); for Inhibitory effect on superoxide anion generation (in words): fMLF-activated human neutrophils
Description: (§1) Superoxide generation and elastase release were carried out according to the procedures described previously. Neutrophils (6 × 10^5/mL) were equilibrated at 37 °C for 2 min and incubated with compounds for 5 min. Neutrophils were then activated by fMLF (100 nM) in the pretreatment of cytochalasin B (1 µg/mL for superoxide generation and 0.5 µg/mL for elastase release) for 10 min. Superoxide anion production was assayed by monitoring the superoxide dismutase-inhibitable reduction of ferricytochrome C. Elastase release was performed using MeO-Suc-Ala-Ala-Pro-Valp-nitroanilide as the elastase substrate.

[3] = test system: fMLF-activated human neutrophils (neutrophil elastase release); assay: Neutrophil elastase release in fMLF-activated human neutrophils; type: cell-based; settings: for IC50: Neutrophil, fMLF/cytochalasin B-activated human neutrophils, mean ± SEM (n = 3); for Inhibitory effect on NE release (in words): fMLF-activated human neutrophils
Description: as §1

Vero cells = assay: Vero cell viability (MTT, Promega Cell Titer 96)

Compound | MIC [1] | IC50 [2] | IC50 [3] | melting point | Survival Rate of Vero Cells @ 20 μg/mL (Vero cells) | Inhibitory effect on superoxide anion generation (in words) [2] | Inhibitory effect on NE release (in words) [3]
O=C1c2ccccc2-c2c(N3CCCC3)nc3ccccc3c21 [Compound 3a, 6-(Pyrrolidin-1-yl)-11H-indeno[1,2-c]quinolin-11-one] | 4.56 µg/mL (≈ 15.2 µM) | > 10000 nM | > 10000 nM | 163 to 164 °C | 88.61% |  | 
O=C1c2ccccc2-c2c(N3CCCCC3)nc3ccccc3c21 [Compound 3b, 6-(Piperidin-1-yl)-11H-indeno[1,2-c]quinolin-11-one] | 4.93 µg/mL (≈ 15.7 µM) | > 10000 nM | > 10000 nM | 165 to 166 °C | 96.18% |  | 
O=C1c2ccccc2-c2c(N3CCOCC3)nc3ccccc3c21 [Compound 3c, 6-(Morpholino-1-yl)-11H-indeno[1,2-c]quinolin-11-one] | 3.12 µg/mL (≈ 9.86 µM) | > 10000 nM | > 10000 nM | 171 to 173 °C | 91.19% |  | 
O=C1c2ccccc2-c2c(N3CCC(O)CC3)nc3ccccc3c21 [Compound 3d, 6-(4-Hydroxypiperidin-1-yl)-11H-indeno[1,2-c]quinolin-11-one] | 2.09 µg/mL (≈ 6.33 µM) | 1780 ± 440 nM | 2200 ± 690 nM | 208 °C | 91.23% |  | 
O=C1c2ccccc2-c2c(N3CCCC(O)C3)nc3ccccc3c21 (centres unmarked) [Compound 3e, 6-(3-Hydroxypiperidin-1-yl)-11H-indeno[1,2-c]quinolin-11-one] | 4.97 µg/mL (≈ 15 µM) | 2900 ± 110 nM | 2800 ± 90 nM | 211 to 212 °C | 87.78% |  | 
O=C1c2ccccc2-c2c(N3CCC(CO)CC3)nc3ccccc3c21 [Compound 3f, 6-(4-Piperidinemethano-1-yl)-11H-indeno[1,2-c]quinolin-11-one] | 3.98 µg/mL (≈ 11.6 µM) | 3370 ± 170 nM | 4500 ± 1320 nM | 223 to 224 °C | 91.11% |  | 
O=C1c2ccccc2-c2c(N3CCCC(CO)C3)nc3ccccc3c21 (centres unmarked) [Compound 3g, 6-(3-Piperidinemethano-1-yl)-11H-indeno[1,2-c]quinolin-11-one] | 3.07 µg/mL (≈ 8.91 µM) | 2770 ± 470 nM | 2120 ± 1190 nM | 220 to 221 °C | 92.25% |  | 
COc1ccc2c(c1)C(=O)c1c-2c(N2CCCC2)nc2ccccc12 [Compound 4a, 9-Methoxy-6-(pyrrolidin-1-yl)-11H-indeno[1,2-c]quinolin-11-one] | 17 µg/mL (≈ 51.5 µM) | > 10000 nM | > 10000 nM |  | 89.62% |  | 
COc1ccc2c(c1)C(=O)c1c-2c(N2CCCCC2)nc2ccccc12 [Compound 4b] | > 20 µg/mL | > 10000 nM | > 10000 nM |  | 99.55% |  | 
COc1ccc2c(c1)C(=O)c1c-2c(N2CCOCC2)nc2ccccc12 [Compound 4c] | > 20 µg/mL | > 10000 nM | > 10000 nM |  | 94.47% |  | 
COc1ccc2c(c1)C(=O)c1c-2c(N2CCC(O)CC2)nc2ccccc12 [Compound 4d, 6-(4-Hydroxypiperidin-1-yl)-9-methoxy-11H-indeno[1,2-c]quinolin-11-one] | 7.74 µg/mL (≈ 21.5 µM) | 2820 ± 300 nM | 2050 ± 240 nM |  | 84.72% |  | 
COc1ccc2c(c1)C(=O)c1c-2c(N2CCCC(O)C2)nc2ccccc12 (centres unmarked) [Compound 4e, 6-(3-Hydroxypiperidin-1-yl)-9-methoxy-11H-indeno[1,2-c]quinolin-11-one] | 19.1 µg/mL (≈ 53 µM) | 1890 ± 650 nM | 2930 ± 700 nM | 191 to 192 °C | 87.59% |  | 
COc1ccc2c(c1)C(=O)c1c-2c(N2CCC(CO)CC2)nc2ccccc12 [Compound 4f, 6-[4-(Hydroxymethyl)piperidin-1-yl]-9-methoxy-11H-indeno[1,2-c]quinolin-11-one] | > 20 µg/mL | 1930 ± 920 nM | 880 ± 300 nM | 218 to 219 °C | 90.26% |  | 
COc1ccc2c(c1)C(=O)c1c-2c(N2CCCC(CO)C2)nc2ccccc12 (centres unmarked) [Compound 4g, 6-[3-(Hydroxymethyl)piperidin-1-yl]-9-methoxy-11H-indeno[1,2-c]quinolin-11-one] | > 20 µg/mL | 680 ± 140 nM | 460 ± 80 nM | 243 to 244 °C | 87.60% |  | 
OC1CCN(c2nc3ccccc3c3c2-c2ccccc2C3)CC1 [Compound 5, 1-(11H-Indeno[1,2-c]quinolin-6-yl)piperidin-4-ol] | 18 µg/mL (≈ 56.9 µM) | 4020 ± 1080 nM | 5290 ± 480 nM |  | 85.41% | weakly active | weakly active
CC1(O)c2ccccc2-c2c(N3CCC(O)CC3)nc3ccccc3c21 (centres unmarked) [Compound 6, 6-(4-Hydroxypiperidin-1-yl)-11-methyl-11H-indeno[1,2-c]quinolin-11-ol] | > 20 µg/mL | > 10000 nM | > 10000 nM | 146 to 147 °C | 89.83% | inactive | inactive
O/N=C1\c2ccccc2-c2c(N3CCC(O)CC3)nc3ccccc3c21 [Compound 7, (E)-6-(4-Hydroxypiperidin-1-yl)-11H-indeno[1,2-c]quinolin-11-one Oxime] | > 20 µg/mL | 830 ± 470 nM | 1390 ± 640 nM | 155 to 156 °C | 84.14% | comparable anti-inflammatory activity | comparable anti-inflammatory activity
CO/N=C1\c2ccccc2-c2c(N3CCC(O)CC3)nc3ccccc3c21 [Compound 8, (E)-6-(4-Hydroxypiperidin-1-yl)-11H-indeno[1,2-c]quinolin-11-one O-methyl Oxime] | > 20 µg/mL | 2680 ± 950 nM | 2130 ± 920 nM | 183 to 184 °C | 91.48% | comparable anti-inflammatory activity | comparable anti-inflammatory activity
NC(=O)N/N=C1\c2ccccc2-c2c(N3CCC(O)CC3)nc3ccccc3c21 [Compound 9, (E)-2-[6-(4-Hydroxypiperidin-1-yl)-11H-indeno[1,2-c]quinolin-11-ylidene]hydrazine Carboxamide] | > 20 µg/mL | 3640 ± 1430 nM | > 10000 nM | 289 to 290 °C | 81.20% |  | 
NC(=S)N/N=C1\c2ccccc2-c2c(N3CCC(O)CC3)nc3ccccc3c21 [Compound 10, (E)-2-[6-(4-Hydroxypiperidin-1-yl)-11H-indeno[1,2-c]quinolin-11-ylidene]hydrazine Carbothioamide] | > 20 µg/mL | 2410 ± 360 nM | > 10000 nM | 304 to 305 °C | 80.28% |  | 
O=C(N/N=C1\c2ccccc2-c2c(N3CCC(O)CC3)nc3ccccc3c21)c1ccccc1 [Compound 11, (E)-N′-[6-(4-Hydroxypiperidin-1-yl)-11H-indeno[1,2-c]quinolin-11-ylidene]benzohydrazide] | 1.98 µg/mL (≈ 4.41 µM) | 1670 ± 870 nM | > 10000 nM | 258 to 259 °C | 89.55% |  | inactive
O=C(N/N=C1\c2ccccc2-c2c(N3CCC(O)CC3)nc3ccccc3c21)c1ccncc1 [Compound 12, (E)-N′-[6-(4-Hydroxypiperidin-1-yl)-11H-indeno[1,2-c]quinolin-11-ylidene]isonicotino Hydrazide] | 0.96 µg/mL (≈ 2.14 µM) | 1720 ± 230 nM | 1760 ± 490 nM | 282 to 283 °C | 94.25% |  | 
NNC(=O)c1ccncc1 [INH, isoniazid, reference compound] | 0.8 to 1.2 µg/mL (≈ 5.83 to 8.75 µM) |  |  |  | 84.80% |  | 
